Data from patent publication US12264156B2, “Compounds and pharmaceutical compositions thereof for the treatment of diseases” (GALAPAGOS NV, priority 2018, dated 2025).

Legend:
Format in all cases: biochemical
Details in all cases: ADP-Glo SIK kinase assay
[1] = target: T1, SIK1 (Homo sapiens, UniProt P57059); experiment: ADP-Glo kinase assay, SIK1
T1 construct: purchased Carna Biosciences 02-131
Outline: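 Wells with 1% DMSO or 10 μM staurosporine (final) define the control window. The kinase reaction with substrate and ATP runs 120 min at RT, followed by ADP-Glo detection: ATP depletion (40 min) and ADP-derived luminescence (30 min).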

[2] = target: T2, SIK2 (Homo sapiens, UniProt Q9H0K1); experiment: ADP-Glo kinase assay, SIK2
T2 construct: purchased ThermoFisher Scientific PV4792
T2 sequence (Q9H0K1 whole entry): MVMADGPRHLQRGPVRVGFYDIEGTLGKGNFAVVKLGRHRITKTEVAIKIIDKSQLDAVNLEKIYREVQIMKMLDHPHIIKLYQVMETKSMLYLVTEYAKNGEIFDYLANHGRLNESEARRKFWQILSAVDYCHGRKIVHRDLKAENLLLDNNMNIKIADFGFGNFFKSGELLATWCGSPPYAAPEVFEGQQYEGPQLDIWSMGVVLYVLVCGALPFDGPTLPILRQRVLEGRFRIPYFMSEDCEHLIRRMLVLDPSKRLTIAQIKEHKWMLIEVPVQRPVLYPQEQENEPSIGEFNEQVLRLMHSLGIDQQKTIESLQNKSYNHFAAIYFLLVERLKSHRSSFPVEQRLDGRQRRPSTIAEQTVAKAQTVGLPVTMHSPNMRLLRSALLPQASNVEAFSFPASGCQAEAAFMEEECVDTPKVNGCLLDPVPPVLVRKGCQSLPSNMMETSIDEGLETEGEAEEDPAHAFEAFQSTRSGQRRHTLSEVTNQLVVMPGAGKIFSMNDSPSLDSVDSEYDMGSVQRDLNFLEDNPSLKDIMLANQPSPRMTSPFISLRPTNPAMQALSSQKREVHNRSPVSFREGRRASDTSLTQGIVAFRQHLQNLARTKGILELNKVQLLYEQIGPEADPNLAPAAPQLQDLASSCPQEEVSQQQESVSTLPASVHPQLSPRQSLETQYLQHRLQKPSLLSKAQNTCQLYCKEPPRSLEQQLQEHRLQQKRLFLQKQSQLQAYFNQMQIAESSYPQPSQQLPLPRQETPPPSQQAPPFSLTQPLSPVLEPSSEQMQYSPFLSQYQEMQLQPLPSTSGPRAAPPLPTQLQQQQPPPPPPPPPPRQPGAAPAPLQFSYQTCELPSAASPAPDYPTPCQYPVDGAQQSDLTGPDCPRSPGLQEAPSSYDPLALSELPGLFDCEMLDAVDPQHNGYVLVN
Outline: (§1)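 Enzyme–substrate mix was started with ATP and incubated 120 min at RT. ADP formed was quantified by ADP-Glo: 40 min ATP depletion, then 30 min detection reagent converting ADP to ATP for luciferase luminescence, which rises with kinase activity. Controls: 1% DMSO and 10 μM staurosporine (final).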

[3] = target: T3, SIK3 (Homo sapiens, UniProt Q9Y2K2); experiment: ADP-Glo kinase assay, SIK3
T3 construct: purchased SignalChem S12-11G-100
T3 sequence (Q9Y2K2 whole entry): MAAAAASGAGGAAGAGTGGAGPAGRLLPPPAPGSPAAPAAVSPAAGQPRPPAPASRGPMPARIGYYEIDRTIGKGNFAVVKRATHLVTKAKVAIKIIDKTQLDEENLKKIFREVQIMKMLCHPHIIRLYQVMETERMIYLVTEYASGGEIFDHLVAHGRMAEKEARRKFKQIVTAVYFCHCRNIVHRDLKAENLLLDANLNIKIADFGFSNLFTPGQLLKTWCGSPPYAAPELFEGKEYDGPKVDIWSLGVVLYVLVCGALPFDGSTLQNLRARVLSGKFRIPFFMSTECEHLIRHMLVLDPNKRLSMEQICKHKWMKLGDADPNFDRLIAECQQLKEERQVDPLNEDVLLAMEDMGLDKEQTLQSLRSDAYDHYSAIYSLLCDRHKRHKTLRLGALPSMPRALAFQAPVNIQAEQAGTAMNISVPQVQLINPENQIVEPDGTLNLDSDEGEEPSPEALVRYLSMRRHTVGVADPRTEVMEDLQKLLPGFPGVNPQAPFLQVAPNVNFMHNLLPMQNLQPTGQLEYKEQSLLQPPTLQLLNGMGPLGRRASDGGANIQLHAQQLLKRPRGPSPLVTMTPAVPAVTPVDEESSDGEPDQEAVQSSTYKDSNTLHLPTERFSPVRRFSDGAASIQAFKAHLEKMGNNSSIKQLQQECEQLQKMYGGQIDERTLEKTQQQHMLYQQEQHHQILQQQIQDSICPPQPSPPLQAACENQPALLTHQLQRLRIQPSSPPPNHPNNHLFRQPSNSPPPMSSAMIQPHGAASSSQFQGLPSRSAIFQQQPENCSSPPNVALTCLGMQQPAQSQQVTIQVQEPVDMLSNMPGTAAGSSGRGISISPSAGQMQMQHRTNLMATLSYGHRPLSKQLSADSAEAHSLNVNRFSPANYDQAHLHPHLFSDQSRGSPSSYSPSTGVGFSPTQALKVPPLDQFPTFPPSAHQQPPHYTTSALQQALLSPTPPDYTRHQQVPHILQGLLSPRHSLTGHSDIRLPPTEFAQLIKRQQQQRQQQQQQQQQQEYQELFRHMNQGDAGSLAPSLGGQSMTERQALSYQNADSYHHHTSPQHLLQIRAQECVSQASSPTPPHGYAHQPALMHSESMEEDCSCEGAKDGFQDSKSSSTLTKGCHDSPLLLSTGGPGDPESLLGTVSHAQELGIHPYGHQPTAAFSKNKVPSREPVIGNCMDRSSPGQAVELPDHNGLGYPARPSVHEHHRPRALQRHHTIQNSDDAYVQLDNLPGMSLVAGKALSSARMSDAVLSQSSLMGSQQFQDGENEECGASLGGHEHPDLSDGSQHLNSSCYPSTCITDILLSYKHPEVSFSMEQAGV
Outline: as §1

T1 sequence (P57059 whole entry): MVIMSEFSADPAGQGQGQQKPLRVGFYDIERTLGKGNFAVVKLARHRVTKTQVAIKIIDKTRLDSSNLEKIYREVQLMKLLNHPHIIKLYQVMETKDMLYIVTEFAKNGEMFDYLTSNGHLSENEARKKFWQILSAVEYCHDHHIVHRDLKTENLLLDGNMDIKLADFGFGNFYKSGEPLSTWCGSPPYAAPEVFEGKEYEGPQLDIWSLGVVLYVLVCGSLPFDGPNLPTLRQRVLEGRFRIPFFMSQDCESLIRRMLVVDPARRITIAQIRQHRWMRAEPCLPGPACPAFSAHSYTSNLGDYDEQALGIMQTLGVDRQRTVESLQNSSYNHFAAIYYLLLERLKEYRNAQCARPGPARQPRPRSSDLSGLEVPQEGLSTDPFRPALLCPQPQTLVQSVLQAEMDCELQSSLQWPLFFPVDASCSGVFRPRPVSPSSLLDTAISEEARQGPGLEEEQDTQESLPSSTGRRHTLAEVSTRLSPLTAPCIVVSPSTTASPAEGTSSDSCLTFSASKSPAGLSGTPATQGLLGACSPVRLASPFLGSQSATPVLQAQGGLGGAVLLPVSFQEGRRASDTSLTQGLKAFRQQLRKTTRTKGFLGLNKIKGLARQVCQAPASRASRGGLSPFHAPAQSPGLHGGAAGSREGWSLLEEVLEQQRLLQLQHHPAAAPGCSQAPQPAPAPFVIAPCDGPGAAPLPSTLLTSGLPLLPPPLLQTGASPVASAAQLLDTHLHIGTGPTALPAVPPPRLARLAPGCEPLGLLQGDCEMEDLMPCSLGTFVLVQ

Row | IC50 [1] [nM] | IC50 [2] [nM] | IC50 [3] [nM] | Structure (SMILES)
1 | 10 to 100 | 0.01 to 10 | 0.01 to 10 | COc1cc(-c2cnc3cc(OCC(C)(C)OC)ccn23)cc(OC(F)F)c1C(=O)NC1CC1 [compound 3, N-cyclopropyl-2-(difluoromethoxy)-6-methoxy-4-[7-(2-methoxy-2-methyl-propoxy)imidazo[1,2-a]pyridin-3-yl]benzamide]
2 | 10 to 100 | 0.01 to 10 | 0.01 to 10 | COc1cc(-c2cnc3cc(OCCN4CCCC4)ccn23)cc(OC(F)F)c1C(=O)NC1CC1 [compound 20, N-cyclopropyl-2-(difluoromethoxy)-6-methoxy-4-[7-(2-pyrrolidin-1-ylethoxy)imidazo[1,2-a]pyridin-3-yl]benzamide]
3 | 0.01 to 10 | 0.01 to 10 | 0.01 to 10 | COc1cc(-c2cnc3cc(OCCNC(C)=O)ccn23)cc(OC(F)F)c1C(=O)NC1CC1 [compound 27, 4-[7-(2-acetamidoethoxy)imidazo [1,2-a]pyridin-3-yl]-N-cyclopropyl-2-(difluoromethoxy)-6-methoxy-benzamide]
4 | 10 to 100 | 0.01 to 10 | 0.01 to 10 | COc1cc(-c2cnc3cc(OCCO)ccn23)cc(OC(F)F)c1C(=O)NC1CC1 [compound 30, N-cyclopropyl-2-(difluoromethoxy)-4-[7-(2-hydroxyethoxy)imidazo [1,2-a]pyridin-3-yl]-6-methoxy-benzamide]
5 | > 500 | > 500 | > 500 | COc1cc(-c2cnc3cc(OCCC#N)ccn23)cc(OC(F)F)c1C(=O)NC1CC1 [compound 31, 4-[7-(2-cyanoethoxy)imidazo[1,2-a]pyridin-3-yl]-N-cyclopropyl-2-(difluoromethoxy)-6-methoxy-benzamide]
6 | 10 to 100 | 0.01 to 10 | 0.01 to 10 | COc1cc(-c2cnc3cc(OCC(C)(C)C#N)ccn23)cc(OC(F)F)c1C(=O)NC1CC1 [compound 34, 4-[7-(2-cyano-2-methyl-propoxy)imidazo[1,2-a]pyridin-3-yl]-N-cyclopropyl-2-(difluoromethoxy)-6-methoxy-benzamide]
7 | 10 to 100 | 0.01 to 10 | 0.01 to 10 | COc1cc(-c2cnc3cc(OCCF)ccn23)cc(OC(F)F)c1C(=O)NC1CC1 [compound 36, N-cyclopropyl-2-(difluoromethoxy)-4-[7-(2-fluoroethoxy)imidazo[1,2-a]pyridin-3-yl]-6-methoxy-benzamide]

Continued, compound first:

Row | Structure (SMILES) | IC50 [1] [nM] | IC50 [2] [nM] | IC50 [3] [nM]
8 | COc1cc(-c2cnc3cc(OC4CCCN(C)C4)ccn23)cc(OC(F)F)c1C(=O)NC1CC1 (stereo not drawn) [compound 2, N-cyclopropyl-2-(difluoromethoxy)-6-methoxy-4-[7-[(1-methyl-3-piperidyl)oxy]imidazo [1,2-a]pyridin-3-yl]benzamide] | > 500 | 10 to 100 | 0.01 to 10
9 | COc1cc(-c2cnc3cc(OC4CCN(C)CC4)ccn23)cc(OC(F)F)c1C(=O)NC1CC1 [compound 7, N-cyclopropyl-2-(difluoromethoxy)-6-methoxy-4-[7-[(1-methyl-4-piperidyl)oxy]imidazo[1,2-a]pyridin-3-yl]benzamide] | > 500 | 10 to 100 | 10 to 100
10 | COc1cc(-c2cnc3cc(OCC(C)(C)N4CCOCC4)ccn23)cc(OC(F)F)c1C(=O)NC1CC1 [compound 11, N-cyclopropyl-2-(difluoromethoxy)-6-methoxy-4-[7-(2-methyl-2-morpholino-propoxy)imidazo[1,2-a]pyridin-3-yl]benzamide] | 100 to 500 | 10 to 100 | 0.01 to 10
11 | COc1cc(-c2cnc3cc(OC(C)CN4CCOCC4)ccn23)cc(OC(F)F)c1C(=O)NC1CC1 (stereo not drawn) [compound 12, N-cyclopropyl-2-(difluoromethoxy)-6-methoxy-4-[7-(1-methyl-2-morpholino-ethoxy)imidazo[1,2-a]pyridin-3-yl]benzamide] | > 500 | 100 to 500 | 10 to 100
12 | COc1cc(-c2cnc3cc(OC4CCN(C)C4)ccn23)cc(OC(F)F)c1C(=O)NC1CC1 (stereo not drawn) [compound 15, N-cyclopropyl-2-(difluoromethoxy)-6-methoxy-4-[7-(1-methylpyrrolidin-3-yl)oxyimidazo[1,2-a]pyridin-3-yl]benzamide] | > 500 | 10 to 100 | 10 to 100
13 | COc1cc(-c2cnc3cc(OCc4cncn4C)ccn23)cc(OC(F)F)c1C(=O)NC1CC1 [compound 19, N-cyclopropyl-2-(difluoromethoxy)-6-methoxy-4-[7-[(3-methylimidazol-4-yl)methoxy]imidazo[1,2-a]pyridin-3-yl]benzamide] | 10 to 100 | 0.01 to 10 | 0.01 to 10
14 | COc1cc(-c2cnc3cc(OCCN4CCS(=O)(=O)CC4)ccn23)cc(OC(F)F)c1C(=O)NC1CC1 [compound 22, N-cyclopropyl-2-(difluoromethoxy)-4-[7-[2-(1,1-dioxo-1,4-thiazinan-4-yl)ethoxy]imidazo[1,2-a]pyridin-3-yl]-6-methoxy-benzamide] | 10 to 100 | 0.01 to 10 | 0.01 to 10
15 | COc1cc(-c2cnc3cc(OCCC4CCCCN4C)ccn23)cc(OC(F)F)c1C(=O)NC1CC1 (stereo not drawn) [compound 24, N-cyclopropyl-2-(difluoromethoxy)-6-methoxy-4-[7-[2-(1-methyl-2-piperidyl)ethoxy]imidazo [1,2-a]pyridin-3-yl]benzamide] | 0.01 to 10 | 0.01 to 10 | 0.01 to 10
16 | COc1cc(-c2cnc3cc(OCC4CCN(C)CC4)ccn23)cc(OC(F)F)c1C(=O)NC1CC1 [compound 25, N-cyclopropyl-2-(difluoromethoxy)-6-methoxy-4-[7-[(1-methyl-4-piperidyl)methoxy]imidazo[1,2-a]pyridin-3-yl]benzamide] | 0.01 to 10 | 0.01 to 10 | 0.01 to 10
17 | COc1cc(-c2cnc3cc(OCC4CC(=O)N(C)C4)ccn23)cc(OC(F)F)c1C(=O)NC1CC1 (stereo not drawn) [compound 26, N-cyclopropyl-2-(difluoromethoxy)-6-methoxy-4-[7-[(1-methyl-5-oxo-pyrrolidin-3-yl)methoxy]imidazo[1,2-a]pyridin-3-yl]benzamide] | 10 to 100 | 0.01 to 10 | 0.01 to 10
18 | COc1cc(-c2cnc3cc(OCC4CCCN4C)ccn23)cc(OC(F)F)c1C(=O)NC1CC1 (stereo not drawn) [compound 28, N-cyclopropyl-2-(difluoromethoxy)-6-methoxy-4-[7-[(1-methylpyrrolidin-2-yl)methoxy]imidazo[1,2-a]pyridin-3-yl]benzamide] | 100 to 500 | 0.01 to 10 | 0.01 to 10
19 | COc1cc(-c2cnc3cc(OC4CN(C)C4)ccn23)cc(OC(F)F)c1C(=O)NC1CC1 [compound 29, N-cyclopropyl-2-(difluoromethoxy)-6-methoxy-4-[7-(1-methylazetidin-3-yl)oxyimidazo[1,2-a]pyridin-3-yl]benzamide] | 100 to 500 | 10 to 100 | 10 to 100
20 | COc1cc(-c2cnc3cc(OCc4ncco4)ccn23)cc(OC(F)F)c1C(=O)NC1CC1 [compound 32, N-cyclopropyl-2-(difluoromethoxy)-6-methoxy-4-[7-(oxazol-2-ylmethoxy)imidazo[1,2-a]pyridin-3-yl]benzamide] | 10 to 100 | 0.01 to 10 | 0.01 to 10
